The values that follow come from patent US10028960B2, “Pyrimidine compounds as JAK kinase inhibitors” (THERAVANCE BIOPHARMA R&D IP, LLC, priority 2016, dated 2018).

Like-named read-outs stand apart in the source and are kept apart here.

One data set has as its target Tyk2 (Homo sapiens (Human), UniProt P29597). The experiment in a line: LanthaScreen JAK biochemical assay, Tyk2. The protocol: (§1) A panel of four LanthaScreen JAK biochemical assays (JAK1, 2, 3 and Tyk2) were carried in a common kinase reaction buffer (50 mM HEPES, pH 7.5, 0.01% Brij-35, 10 mM MgCl2, and 1 mM EGTA). Recombinant GST-tagged JAK enzymes and a GFP-tagged STAT1 peptide substrate were obtained from Life Technologies.

A short description of data set [1]: Colon pharmacokinetics in rats. Particulars: Sprague Dawley, rat, colon and plasma, po, 5 mg/kg.
Procedure: The test compound was formulated in 0.5% methyl-cellulose in water and dosed via oral gavage at 3.2 mg/kg and 100 mg/kg to Sprague Dawley rats. At various time points (typically 0.5, 1, 3, 6, 24 hr) post dosing, blood samples were removed via cardiac puncture and intact colons were excised from the rats. Blood samples were centrifuged at 1500×g for 15 min to collect plasma. Colons were washed with ice cold phosphate buffered saline (PBS), weighed, and homogenized at a dilution of 1:10 in PBS. Plasma and colon levels of test compound were determined by LC-MS analysis against analytical standards constructed into a standard curve in the test matrix. A colon to plasma ratio was determined as the ratio of the colon AUC to the plasma AUC in μg hr/g.
For data set [2], the system named is IL-4 stimulated STAT6 phosphorylation in CD3+ T cells in human PBMCs. As to the kind of experiment: Cellular JAK potency assay: inhibition of IL-4 stimulated pSTAT6 in CD3+ T cells. Conditions: T-cell. It is filed as cell-based. How it is done:
The potency of test compounds for inhibition of interleukin-4 (IL-4) stimulated STAT6 phosphorylation was measured in CD3-positive (CD3+) T cells in human peripheral blood mononuclear cells (PBMCs) isolated from human whole blood (Stanford Blood Center) using flow cytometry. Because IL-4 signals through JAK, this assay provides a measure of JAK cellular potency.
CD3+ T cells were identified using a […] (PE) conjugated anti-CD3 antibody (Clone UCHT1, BD Biosciences), while an Alexa Fluor 647 conjugated anti-pSTAT6 antibody (pY641, Clone 18/P, BD Biosciences) was used to detect STAT6 phosphorylation.
Human peripheral blood mononuclear cells (PBMC) were isolated from human whole blood of healthy donors using a ficoll gradient. […] After incubation, cells were washed twice in FACS buffer before being analyzed using a LSRII flow cytometer (BD Biosciences).
To determine the inhibitory potency of test compounds in response to IL-4, the median fluorescent intensity (MFI) of pSTAT6 was measured in CD3+ T cells. IC50 values were determined from analysis of the inhibition curves of MFI vs compound concentration. Data are expressed as pIC50 (negative decadic logarithm IC50) values (mean±standard deviation).

The conditions of data set [3]: in vivo. The text has this:
The objective of this assay was to determine the epidermal, dermal and plasma pharmacokinetics of a test compound following a 24 hr exposure to intact mouse or mini-pig skin.
Twenty-four hours prior to dosing the hair was shaved from the back of 25 g male Balb/c mice exposing an area at of least 6 cm^2 (about 10% of body surface) and, in a separate experiment, of 10 kg Gottingen mini-pigs exposing an area of at least 450 cm^2 (about 10% of body surface). […] The skin was covered with an adhesive cover to prevent loss of compound to the cage or bedding.
Following 24 h exposure, the backs were gently washed with soap and water to remove non-absorbed drug and patted dry. Immediately following this washing, blood was drawn by cardiac puncture from the mice and via venipuncture from the mini-pigs. The outer skin (stratum corneum) was then removed by adhesive tape stripping. Upon exposure of the epidermis a 0.5 cm punch biopsy was taken. The epidermis and dermis were quickly separated, weighed and snap frozen.

In data set [4] the test system is oxazolone-induced colitis. As to the kind of experiment: Mouse model of oxazolone-induced colitis. The class given is in vivo, BALB/C mice. The protocol: Oxazolone-induced colitis is an experimental model that has a histological resemblance to human ulcerative colitis (Heller et al. […], 2002, 17, 629-638). Adult BALB/C mice from Harlan were used in the assay. On day 1, animals were lightly anesthetized with isoflurane and the hairs between the shoulder were carefully removed before oxazolone (4%, 150 μL, 4:1 acetone: olive oil formulation) or vehicle solution was slowly applied for skin sensitization. Seven days after skin sensitization, the mice were fasted overnight, anesthetized with isoflurane inhalation, and a 1 mL syringe equipped with a 3.5-F catheter, filled with oxazolone solution, was inserted carefully about 4 cm into the colon of the mouse. Following insertion, 50 μL of the oxazolone solution (1%, 1:1 ethanol:water formulation) was injected very slowly (over 30 sec using an injection pump) into the colon. The catheter was removed and the mice were held vertically (head down) for 2 min to ensure that the entire oxazolone solution remained inside the colon. Drug treatment (PO, BID or TID) or vehicle was initiated a day prior to the oxazolone intrarectal (IR) challenge. Two-day post oxazolone intrarectal challenge, the Disease Activity Index (DAI) was assessed by treatment-blinded experimenters for each mouse according to the criteria score: stool consistency score (0, normal; 2, loose; 4, diarrhea), gross bleeding score (0, absence; 2, blood tinged; 4, presence), and weight loss score (0, none; 1, 1%-5%; 2, 5%-10%; 3, 10%-20%; 4, more than 20%); DAI=average of (stool consistency score+gross bleeding score+weight loss score).
Selected compounds of the invention were tested in the assay. Efficacy in the model is evidenced by a decrease in DAI score as compared with the score from vehicle treated animals.

The next data set addresses JAK2 (Homo sapiens (Human), UniProt O60674). The experiment in a line: LanthaScreen JAK biochemical assay, JAK2. How it is done:
as §1

Sequence of Tyk2 (P29597 whole entry): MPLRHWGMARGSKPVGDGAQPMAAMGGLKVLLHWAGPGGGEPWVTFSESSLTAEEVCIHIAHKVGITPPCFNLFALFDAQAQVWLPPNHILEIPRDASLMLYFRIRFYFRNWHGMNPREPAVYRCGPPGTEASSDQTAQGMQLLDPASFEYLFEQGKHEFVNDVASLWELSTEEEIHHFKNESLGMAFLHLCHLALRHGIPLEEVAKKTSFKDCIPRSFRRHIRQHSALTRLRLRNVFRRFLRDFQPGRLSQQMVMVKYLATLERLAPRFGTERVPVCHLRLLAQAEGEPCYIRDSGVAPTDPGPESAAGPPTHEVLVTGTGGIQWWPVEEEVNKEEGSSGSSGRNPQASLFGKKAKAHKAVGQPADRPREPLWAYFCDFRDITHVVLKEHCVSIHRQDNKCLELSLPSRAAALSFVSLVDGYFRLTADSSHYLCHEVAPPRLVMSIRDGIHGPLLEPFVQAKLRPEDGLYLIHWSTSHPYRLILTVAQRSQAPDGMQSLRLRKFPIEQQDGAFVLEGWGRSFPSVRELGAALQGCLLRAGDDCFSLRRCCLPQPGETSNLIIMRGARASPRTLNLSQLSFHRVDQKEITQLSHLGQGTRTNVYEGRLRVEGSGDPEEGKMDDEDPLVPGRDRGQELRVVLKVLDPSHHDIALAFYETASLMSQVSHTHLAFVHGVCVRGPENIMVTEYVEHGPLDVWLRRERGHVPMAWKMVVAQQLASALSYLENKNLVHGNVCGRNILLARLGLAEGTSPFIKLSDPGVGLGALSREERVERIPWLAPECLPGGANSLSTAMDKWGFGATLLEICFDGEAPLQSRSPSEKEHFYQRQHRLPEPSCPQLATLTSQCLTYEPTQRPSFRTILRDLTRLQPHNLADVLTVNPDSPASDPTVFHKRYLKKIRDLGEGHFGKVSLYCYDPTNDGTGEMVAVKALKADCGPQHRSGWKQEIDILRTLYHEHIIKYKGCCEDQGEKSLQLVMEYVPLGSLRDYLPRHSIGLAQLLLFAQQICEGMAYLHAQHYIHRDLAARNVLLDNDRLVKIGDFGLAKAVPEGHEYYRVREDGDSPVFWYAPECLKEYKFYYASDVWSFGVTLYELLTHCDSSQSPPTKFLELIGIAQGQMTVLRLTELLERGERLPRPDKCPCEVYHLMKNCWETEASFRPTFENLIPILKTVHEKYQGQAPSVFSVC
Sequence of JAK2 (O60674 whole entry): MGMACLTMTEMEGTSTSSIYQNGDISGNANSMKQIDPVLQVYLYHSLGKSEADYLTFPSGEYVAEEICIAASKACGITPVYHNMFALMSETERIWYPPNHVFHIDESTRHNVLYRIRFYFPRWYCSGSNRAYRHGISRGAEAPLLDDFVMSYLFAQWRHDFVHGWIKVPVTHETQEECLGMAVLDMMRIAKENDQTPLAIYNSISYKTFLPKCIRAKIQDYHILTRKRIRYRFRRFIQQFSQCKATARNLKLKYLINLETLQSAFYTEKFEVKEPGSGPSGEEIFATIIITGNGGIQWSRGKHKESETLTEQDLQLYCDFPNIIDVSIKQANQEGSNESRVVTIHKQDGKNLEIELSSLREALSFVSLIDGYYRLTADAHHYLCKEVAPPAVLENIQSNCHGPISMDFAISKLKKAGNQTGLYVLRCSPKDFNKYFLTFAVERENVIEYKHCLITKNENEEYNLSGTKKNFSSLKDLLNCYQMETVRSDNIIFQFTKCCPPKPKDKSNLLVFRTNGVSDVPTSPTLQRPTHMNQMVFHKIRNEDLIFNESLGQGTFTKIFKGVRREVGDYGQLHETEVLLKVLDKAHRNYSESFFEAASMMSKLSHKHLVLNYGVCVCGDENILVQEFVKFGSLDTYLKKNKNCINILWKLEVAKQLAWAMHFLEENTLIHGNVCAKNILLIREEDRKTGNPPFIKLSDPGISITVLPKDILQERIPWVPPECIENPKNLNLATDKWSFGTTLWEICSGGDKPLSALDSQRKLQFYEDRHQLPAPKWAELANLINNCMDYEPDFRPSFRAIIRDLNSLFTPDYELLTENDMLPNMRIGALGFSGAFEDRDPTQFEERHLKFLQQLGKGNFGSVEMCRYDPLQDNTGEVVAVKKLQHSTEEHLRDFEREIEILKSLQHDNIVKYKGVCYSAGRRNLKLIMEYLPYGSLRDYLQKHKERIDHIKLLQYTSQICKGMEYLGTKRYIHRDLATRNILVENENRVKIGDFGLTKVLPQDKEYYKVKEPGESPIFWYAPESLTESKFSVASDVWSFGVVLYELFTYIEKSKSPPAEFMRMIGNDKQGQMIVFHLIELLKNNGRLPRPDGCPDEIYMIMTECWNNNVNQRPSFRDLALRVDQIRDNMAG

For `COc1cc(Nc2cc(CO)[nH]n2)nc(N(C)[C@@H]2C[C@H]3CCC[C@@H](C2)N3S(=O)(=O)N2CC(C#N)C2)n1` [Example 2, 1-(((1R,3s,5S)-3-((4-((5-(Hydroxymethyl)-1H-pyrazol-3-yl)amino)-6-methoxypyrimidin-2-yl)(methyl)amino)-9-azabicyclo[3.3.1]nonan-9-yl)sulfonyl)azetidine-3-carbonitrile], the Ki at Tyk2 lay in the range of 0.1 to 1 nM. The Kp in data set [1] is above 250. Further, the IC50 is around 50.1 nM in data set [2] (IL-4 stimulated pSTAT6, CD3+ T cells, read-out: pIC50 value (converted)) and at most 50 nM in data set [2] (cellular assay, Assay 4, read-out: IC50 for inhibition of IL-4). The “duration of sustained dermal levels” value in data set [3] (Gottingen, minipig) is “at least 7 days”; in data set [3] (male, Balb/c, mouse), “at least 2 days”. Further, the “activity in the oxazolone-induced colitis model” value in data set [4] (mice) was “demonstrated activity”. Besides, in data set [4] (mouse, PO BID), the “minimal dose that caused a significant anti-colitic effect” value worked out at 1 mg/kg. For the same compound, the “decrease in DAI score as compared with vehicle treated animals” value in data set [4] (mouse, PO, 1, 3, and/or 10 mg/kg BID) was “statistically significant decrease”. Moreover, at JAK2, the “JAK 2 (pKi)” value is listed as “A (A represents a pKi value≥10 (Ki≤0.1 nM))”.
